Columns and labels:
Endothelial lipase (EL) = Endothelial lipase (EL) (Homo sapiens (Human), UniProt Q9Y5X9); test: EL assay: endothelial lipase activity with fluorescent substrate A10070 in DMPG vesicles; assay type: biochemical
Summary of the method: (§1)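 Substrate A10070 sits in sonicated DMPG vesicles at 0.11 mole fraction. Lipase and compound preincubated 30 min, 37° C, in HEPES pH 8.0 buffer with CaCl2.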

hepatic lipase (HL) = hepatic lipase (HL) (Homo sapiens (Human), UniProt P11150); test: HL assay: hepatic lipase activity with fluorescent substrate A10070 in DMPG vesicles; assay type: biochemical
Chain of hepatic lipase (HL) (P11150 23-499, species assumed): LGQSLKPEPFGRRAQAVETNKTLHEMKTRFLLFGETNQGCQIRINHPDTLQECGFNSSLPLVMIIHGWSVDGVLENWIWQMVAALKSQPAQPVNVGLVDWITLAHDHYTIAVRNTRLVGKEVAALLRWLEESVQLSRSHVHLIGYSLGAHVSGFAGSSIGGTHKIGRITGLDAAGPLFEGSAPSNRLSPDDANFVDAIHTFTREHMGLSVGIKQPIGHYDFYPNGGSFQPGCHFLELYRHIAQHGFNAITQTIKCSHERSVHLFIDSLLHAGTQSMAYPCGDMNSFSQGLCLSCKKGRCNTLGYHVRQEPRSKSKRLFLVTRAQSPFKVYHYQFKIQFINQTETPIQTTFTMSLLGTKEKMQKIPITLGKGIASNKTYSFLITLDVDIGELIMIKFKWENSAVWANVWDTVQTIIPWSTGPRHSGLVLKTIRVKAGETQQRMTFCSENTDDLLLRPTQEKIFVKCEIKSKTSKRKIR
Summary of the method: as §1

Chain of Endothelial lipase (EL) (Q9Y5X9 21-500): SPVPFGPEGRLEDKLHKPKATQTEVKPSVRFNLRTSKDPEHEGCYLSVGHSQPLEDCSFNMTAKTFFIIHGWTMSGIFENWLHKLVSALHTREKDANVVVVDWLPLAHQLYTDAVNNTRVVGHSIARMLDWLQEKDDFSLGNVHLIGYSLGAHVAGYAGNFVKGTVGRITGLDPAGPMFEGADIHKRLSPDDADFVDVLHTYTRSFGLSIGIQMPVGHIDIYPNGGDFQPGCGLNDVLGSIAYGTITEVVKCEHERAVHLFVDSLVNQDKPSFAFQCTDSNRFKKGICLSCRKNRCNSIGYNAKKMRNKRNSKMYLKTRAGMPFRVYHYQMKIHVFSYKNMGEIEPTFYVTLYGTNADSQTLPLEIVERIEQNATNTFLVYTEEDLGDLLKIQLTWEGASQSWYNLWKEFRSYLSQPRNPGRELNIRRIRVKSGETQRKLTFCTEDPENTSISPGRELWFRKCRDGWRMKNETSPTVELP

Structure (SMILES)	IC50 (Endothelial lipase (EL))	IC50 (hepatic lipase (HL))
CC(C)(O)Cn1cc(-c2ccc3sc(C(C(=O)NCCS(N)(=O)=O)S(C)(=O)=O)nc3c2)ccc1=O (stereo not drawn) [Example B390, 2-{5-[1-(2-hydroxy-2-methylpropyl)-6-oxo-1,6-dihydropyridin-3-yl]-1,3-benzothiazol-2-yl}-2-methanesulfonyl-N-(2-sulfamoylethyl)acetamide]	3.5 nM	10000 nM
CS(=O)(=O)C(C(=O)NCCS(N)(=O)=O)c1nc2ccc(-c3ccc4c(c3)OCO4)cc2s1 (stereo not drawn) [Example B38, 2-(6-(1,3-benzodioxol-5-yl)-1,3-benzothiazol-2-yl)-2-(methylsulfonyl)-N-(2-sulfamoylethyl)acetamide]	< 10 nM	< 10 nM
NC(=O)c1ccc(-c2ccc3nc(C(C(=O)NCCS(N)(=O)=O)S(=O)(=O)Cc4ccc(OC(F)(F)F)cc4)sc3c2)cc1 (stereo not drawn) [Example B227, 4-(2-{[(2-sulfamoylethyl)car-bamoyl][4-(trifluoromethoxy)phen-yl]methanesulfonyl-methyl}-1,3-benzothiazol-6-yl)benzamide]	0.5 nM	80.8 nM
NS(=O)(=O)CCNC(=O)C(c1nc2ccc(-c3cccc(C(=O)N4CC[C@@H](O)C4)c3)cc2s1)S(=O)(=O)CCC(F)(F)F (stereo partly drawn) [Example B342, 2-(6-{3-[(3R)-3-hydroxy-pyrrolidine-1-carbon-yl]phenyl}-1,3-benzothiazol-2-yl)-N-(2-sulfamoyl-ethyl)-2-(3,3,3-trifluoro-propanesulfonyl)acetamide]	9.5 nM	154 nM
Cn1nccc1-c1ccc2nc(C(C(=O)NCCS(N)(=O)=O)S(C)(=O)=O)sc2c1 (stereo not drawn) [Example B235, 2-methanesulfonyl-2-[6-(1-methyl-1H-pyrazol-5-yl)-1,3-benzothiazol-2-yl]-N-(2-sulfamoylethyl)a-cetamide]	5.1 nM	3050 nM
CS(=O)(=O)C(C(=O)NCCS(N)(=O)=O)c1nc2cc(-c3ccnc(F)c3)ccc2s1 (stereo not drawn) [Example B369, 2-[5-(2-fluoropyridin-4-yl)-1,3-benzothiazol-2-yl]-2-methanesulfonyl-N-(2-sulfamoylethyl)acetamide]	1.5 nM	414 nM
CN(CC(F)F)C(=O)c1cccc(-c2ccc3nc(C(C(=O)NCCS(N)(=O)=O)S(=O)(=O)CCC(F)(F)F)sc3c2)c1 (stereo not drawn) [Example B338, N-(2,2-difluoroethyl)-N-methyl-3-(2-{[(2-sulfamoylethyl)carba-moyl](3,3,3-trifluoropro-panesulfonyl)methyl}-1,3-benzothiazol-6-yl)benzamide]	26.9 nM	99.7 nM
Cc1nnc(CNC(=O)C(c2nc3cc(C)c(-c4ccc(N5CCNCC5)cc4)cc3s2)S(C)(=O)=O)o1 (stereo not drawn) [Example B84, N-((5-methyl-1,3,4-oxadiazol-2-yl)methyl)-2-(5-methyl-6-(4-(piperazin-1-yl)phenyl)-1,3-benzothiazol-2-yl)-2-(methylsulfonyl)acetamide]	34 nM	350 nM
Cc1cc2nc(C(C(=O)NCCS(N)(=O)=O)S(C)(=O)=O)sc2cc1-c1ccc(C(=O)O)cc1 (stereo not drawn) [Example B326, 4-(2-{methanesulfonyl[(2-sulfamoylethyl)carba-moyl]methyl}-5-methyl-1,3-benzothiazol-6-yl)benzoic acid]	1.6 nM	201 nM
NS(=O)(=O)CCNC(=O)C(c1nc2ccc(-c3ccccc3)cc2s1)S(=O)(=O)CC1CC1 (stereo not drawn) [Example B118, 2-((cyclopropylmethyl)sul-fonyl)-2-(6-phenyl-1,3-benzothiazol-2-yl)-N-(2-sulfamoylethyl)acetamide]	< 10 nM	10 nM
CS(=O)(=O)C(C(=O)NCCS(N)(=O)=O)c1nc2cc(-c3cnoc3)ccc2s1 (stereo not drawn) [Example B373, 2-methanesulfonyl-2-[5-(1,2-oxazol-4-yl)-1,3-benzothiazol-2-yl]-N-(2-sulfamoylethyl)acetamide]	3.3 nM	45.7 nM
CC(C)S(=O)(=O)C(C(=O)NCCS(N)(=O)=O)c1nc2cc(-c3ccc(F)nc3)ccc2s1 (stereo not drawn) [Example B312, 2-[5-(6-fluoropyridin-3-yl)-1,3-benzothiazol-2-yl]-2-(propane-2-sulfonyl)-N-(2-sulfamoylethyl)a-cetamide]	6.2 nM	153 nM
COCCn1cc(-c2ccc3nc(C(C(=O)NCCS(N)(=O)=O)S(=O)(=O)Cc4ccc(F)cc4)sc3c2)cn1 (stereo not drawn) [Example B163, 2-((4-fluorobenzyl)sul-fonyl)-2-(6-(1-(2-methoxyethyl)-1H-pyrazol-4-yl)-1,3-benzothiazol-2-yl)-N-(2-sulfamoylethyl)a-cetamide]	28 nM	2550 nM
NS(=O)(=O)CCNC(=O)C(c1nc2ccc(-c3ccc(CCO)cc3)cc2s1)S(=O)(=O)Cc1ccc(F)cc1 (stereo not drawn) [Example B240, 2-[(4-fluorophenyl)methane-sulfonyl]-2-{6-[4-(2-hydroxyethyl)phenyl]-1,3-benzothiazol-2-yl}-N-(2-sulfamoylethyl)a-cetamide]	25.7 nM	76.6 nM
COc1cccc(-c2ccc3nc(C(C(=O)NCCS(N)(=O)=O)S(C)(=O)=O)sc3c2)c1 (stereo not drawn) [Example B79, 2-(6-(3-methoxyphenyl)-1,3-benzothiazol-2-yl)-2-(methylsulfonyl)-N-(2-sulfamoylethyl)acetamide]	< 10 nM	< 10 nM
CC(=O)Nc1ccc(-c2ccc3nc(C(C(=O)NCCS(N)(=O)=O)S(=O)(=O)Cc4ccc(C(F)(F)F)cc4)sc3c2)cc1 (stereo not drawn) [Example B287, 2-[6-(4-acetamidophenyl)-1,3-benzothiazol-2-yl]-N-(2-sulfamoylethyl)-2-{[4-(trifluoromethyl)phen-yl]methanesulfonyl}a-cetamide]	7 nM	90 nM
CC(C)(O)Cn1ccc(-c2ccc3sc(C(C(=O)NCCS(N)(=O)=O)S(C)(=O)=O)nc3c2)cc1=O (stereo not drawn) [Example B389, 2-{5-[1-(2-hydroxy-2-methylpropyl)-2-oxo-1,2-dihydropyridin-4-yl]-1,3-benzothiazol-2-yl}-2-methanesulfonyl-N-(2-sulfamoylethyl)acetamide]	2 nM	6300 nM
COC1CN(C(=O)c2ccc(-c3ccc4nc(C(C(=O)NCCS(N)(=O)=O)S(=O)(=O)Cc5ccc(F)cc5)sc4c3)cc2)C1 (stereo not drawn) [Example B302, 2-[(4-fluorophen-yl)methanesulfonyl]-2-{6-[4-(3-methoxyazetidine-1-carbonyl)phenyl]-1,3-benzothiazol-2-yl}-N-(2-sulfamoylethyl)acetamide]	7.2 nM	52 nM
NS(=O)(=O)CCNC(=O)C(c1nc2ccc(-c3ccc(S(=O)(=O)NCCO)cc3)cc2s1)S(=O)(=O)Cc1ccc(F)cc1 (stereo not drawn) [Example B238, 2-[(4-fluorophenyl)methane-sulfonyl]-2-(6-{4-[(2-hydroxyethyl)sulfa-moyl]phenyl}-1,3-benzothiazol-2-yl)-N-(2-sulfamoylethyl)a-cetamide]	9.8 nM	234 nM
COCCS(=O)(=O)NS(=O)(=O)c1cccc(CNC(=O)C(c2nc3cc(-c4ccccc4)ccc3s2)S(=O)(=O)CCOC)c1 (stereo not drawn) [Example B270, N-({3-[(2-methoxyethane-sulfonamido)sulfonyl]phen-yl}methyl)-2-(2-methoxyethanesulfonyl)-2-(5-phenyl-1,3-benzothiazol-2-yl)a-cetamide]	205 nM	212 nM
NS(=O)(=O)CCNC(=O)C(c1nc2ccc(-c3ccc(C(=O)NCCO)cc3)cc2s1)S(=O)(=O)CCC(F)(F)F (stereo not drawn) [Example B46, N-(2-hydroxyethyl)-4-(2-(2-oxo-2-((2-sulfamoylethyl)amino)-1-((3,3,3-trifluoropropyl)sul-fonyl)ethyl)-1,3-benzothiazol-6-yl)ben-zamide]	< 10 nM	520 nM
COCCS(=O)(=O)C(C(=O)NCCS(N)(=O)=O)c1nc2ccc(-c3ccnc(OC)c3)cc2s1 (stereo not drawn) [Example B148, 2-((2-methoxyethyl)sul-fonyl)-2-(6-(2-methoxy-4-pyridinyl)-1,3-benzothiazol-2-yl)-N-(2-sulfamoylethyl)acetamide]	< 10 nM	13 nM
Cn1ccc(-c2ccc3nc(C(C(=O)NCCS(N)(=O)=O)S(=O)(=O)Cc4ccc(OC(F)(F)F)cc4)sc3c2)cc1=O (stereo not drawn) [Example B368, 2-[6-(1-methyl-2-oxo-1,2-dihydropyridin-4-yl)-1,3-benzothiazol-2-yl]-N-(2-sulfamoylethyl)-2-{[4-(trifluoromethoxy)phen-yl]methanesulfonyl}a-cetamide]	15.8 nM	1600 nM
CC(C)(O)CNC(=O)c1cccc(-c2ccc3nc(C(C(=O)NCCS(N)(=O)=O)S(=O)(=O)CCC(F)(F)F)sc3c2)c1 (stereo not drawn) [Example B345, N-(2-hydroxy-2-methyl-propyl)-3-(2-{[(2-sulfamoylethyl)carba-moyl](3,3,3-tnfluoropro-panesulfonyl)methyl}-1,3-benzothiazol-6-yl)benzamide]	1 nM	213 nM
Cc1cc2nc(C(C(=O)NCCS(N)(=O)=O)S(=O)(=O)Cc3ccccc3)sc2cc1-c1ccc(C(=O)N2CCCCC2)cc1 (stereo not drawn) [Example B348, 2-{5-methyl-6-[4-(piperidine-1-carbonyl)phen-yl]-1,3-benzothiazol-2-yl}-2-phenylmethane-sulfonyl-N-(2-sulfamoylethyl)acetamide]	1 nM	37.1 nM
COCCS(=O)(=O)C(C(=O)NCc1nnc(C)o1)c1nc2cc(F)c(-c3ccc(C(=O)N4CC(C)(O)C4)cc3)cc2s1 (stereo not drawn) [Example B260, 2-{5-fluoro-6-[4-(3-hydroxy-3-methyl-azetidine-1-carbonyl)phen-yl]-1,3-benzothiazol-2-yl}-2-(2-methoxyethane-sulfonyl)-N-[(5-methyl-1,3,4-oxadiazol-2-yl)methyl]acetamide]	67 nM	1340 nM
COCCNC(=O)c1cccc(-c2ccc3nc(C(C(=O)NCCS(N)(=O)=O)S(C)(=O)=O)sc3c2)c1 (stereo not drawn) [Example B49, N-(2-methoxyethyl)-3-(2-(1-(methylsulfonyl)-2-oxo-2-((2-sulfamoylethyl)a-mino)ethyl)-1,3-benzothiazol-6-yl)ben-zamide]	< 10 nM	152 nM
